In US20250122193A1, “NOVEL PYRIDOCARBAZOLIUM COMPOUNDS AND MEDICAL USES THEREOF” (MyCural Therapeutics, priority 2021, published 2025):

Key:
[1] = target: T1, homodimerization of the bZip protein GCN4 (Saccharomyces cerevisiae, UniProt P03069); assay: split Gaussia luciferase (GLuc) assay, GCN4:GCN4; type: cell-based; settings: 6.5 μM
T1 construct: replacing the existing Zip-gene (GCN4); expressed in transfected cells; host or cells: HeLa
Experimental: (§1) FIG. 1: MYCMI-7 (Compound Example 1) inhibits the MYC:MAX interaction in cells, bind MYC in vitro, and blocks MYC function. A) Molecular structure of MYCMI-7. B-E) split Gaussia luciferase (GLuc) assay. MYC or MYCN and MAX Gluc constructs were co-transfected into HeLa cells together with a firefly luciferase vector. 24 hours post transfection cells were treated with compounds, and after another 17-24 hours cells were harvested and both GLuc and firefly luciferase activities were measured. The mean of three different experiments is shown. […] G) Quantification of isPLA dots. […] J) MYC target gene ODC1 expression after treatment with 5 μM MYCMI-7, quantified by qPCR. […] L) Recombinant MYC bHLHZip protein domain immobilized onto a CM5 chip was subjected to various concentrations of MYCMI-7 and the complex of MYCbHLHZip-MYCMI-7 was measured as response units by SPR. […]
0.2-0.4 μg of each GLuc-construct together with 0.05 μg pCMV-LUC (firefly luciferase) were used per transfection in 12 well plates. […] After 60 min incubation at room temperature 20 μM D-luciferin was added (substrate of Firefly luciferase) and luminescence was measured in a Lumat LB9501 (Berthold) or OmegaFluostar (BMG Labtech) luminometer. Directly after, Gaussia luciferase substrate Coelenterazine (Promega) was added to a final concentration of 20 μM in a mixture with “Stop n' Glow” (Promega) and the luciferase activity was measured. […]

MYC:MAX interaction = MYC:MAX interaction (Homo sapiens, UniProt P01106); assay: co-immunoprecipitation of endogenous MYC and MAX; type: cell-based; settings: 5 μM, MCF7 cells
Experimental: as §1, with “shown. Treatment with: B) 5 μM of MYCMI-7, 64 μM 10058-F4 or 5 μM JQ1, respectively, C) 6.5 μM MYCMI-7 on cells expressing MYC:MAX GLuc vs. GCN4:GCN4 GLuc, D) 5 μM MYCMI-7 and 5 μM ellipticine. E) 5 μM MYCMI-7 for various time points. F) in situ proximity ligation assay (isPLA).” for “shown.”
For western blot equal amounts of proteins ([…]) were separated on a 4-12% SDS-PAGE gel. Proteins were transferred to Immobilion-P membrane (Millipore) and detected by immunostaining and chemoluminescence (Immobilion western HRP substrate; Millipore). […]

MYCN = target: T2, MYCN (Homo sapiens, UniProt P04198); assay: MYCN expression in Kelly neuroblastoma cells; type: cell-based
T2 construct: endogenous in cells; host or cells: Kelly neuroblastoma cells
Experimental: For western blot equal amounts of proteins ([…]) were separated on a 4-12% SDS-PAGE gel. Proteins were transferred to Immobilion-P membrane (Millipore) and detected by immunostaining and chemoluminescence (Immobilion western HRP substrate; Millipore). For immunoprecipitations 500-1000 μg of protein was used. […] Briefly, cells were crosslinked with 1% formaldehyde on ice for 6 minutes. Nuclear chromatin was sonicated on ice to fragments from 0.3 kb to 0.5 kb. Nuclear chromatin equivalent to 2.5×10^7 cells was immunoprecipitated with 2 μg antibody.

[2] = system: MYC+RAS-transformed rat embryonic fibroblasts; assay: MYC+RAS transformation of REFs (foci, colonies in semi-solid medium); type: cell-based
Experimental: For anchorage-independent growth assay, cells were suspended in 250 μl 0.35% SeaPlaque agarose (InVitro) and seeded into 24 well plates which had previously been coated with a bottom layer of 250 μl 0.7% agarose. After 16 days, the colonies were stained with 100 μg/ml MTT (Sigma) overnight and colonies were counted. For foci formation assays, 3×10^4 REFs were seeded into 6 well plates. The following day the cells were transfected with the indicated plasmids (0.3 μg of each, a total of 0.6 μg per well). After another 24 hours compounds were added. The medium was changed every 2-3 days. When the cells had grown into confluency, medium containing 4% serum was added. After 14 days the number of foci was scored.

[3] = system: MYC target genes CR2, RGS16, CAMKV and nucleolin; assay: MYC transactivation of target genes in U2OS-MYCER cells, RT-qPCR; type: cell-based; settings: 5 μM, 24 hours
Experimental: F) Inhibition of MYC transactivation of target genes CR2, RSG16, CAKMV and nucleolin as determined by RT-qPCR analysis, based on three biological experiments with three technical repeats each. U2OS-MYCER cells were treated with (MYC ON) or without (MYC OFF) 100 nM 4-hydroxy-tamoxifen (4-OHT) for 4 hours, after which DMSO or MYCMI-7 (5 μM) were added for 24 hours before total RNA was extraction. Fold changes in mRNA expression are presented relative to DMSO in MYC OFF cells after normalization to GAPDH, used as reference gene.

P493-6 cells = assay: cell cycle distribution by flow cytometry, P493-6; type: cell-based; settings: 5 μM, 48 hours
Experimental: (§2) FIG. 4: MYCMI-7 induces apoptosis in malignant cells and growth arrest in normal cells. A) Cell cycle distribution analysis by flow cytometry of MYC-regulated P493-6 cells and normal rat embryo fibroblasts (REFs). Left panel, P493-6 synchronized in G0 by 24 hours treatment of […] doxycycline. Doxycycline was removed and the cells were harvested 48 hours after the addition of fresh medium containing DMSO or 5 μM MYCMI-7. Right panel, flow cytometry analysis of normal REFs treated with DMSO or 5 μM MYCMI-7. B) Apoptosis assay using the Cell Death Detection ELISA^plus kit. Left panel, immortalized Rat1 fibroblasts with different MYC status after 24 hours of 5 μM MYCMI-7 treatment, middle panel and right panels, normal REFs and normal peripheral blood lymphocytes, respectively, after 24 and 48 hours of 5 μM MYCMI-7 treatment. […] Viability was measured by trypan blue exclusion assay. F) Cell growth measured with Cyt62 assay of primary normal human epidermal melanocytes (NHEM) treated for 72 hours with MYCMI-7, G) Viability measured by trypan blue exclusion assay of NHEM after treatment for 72 hours with MYCMI-7.
(§3) Flow cytometry: P493-6 cells were synchronized using 1 μg/ml doxycycline. […] Cells were stained with propidium iodide (Sigma) and 1×10^4 cells per treatment were analyzed using a FACScan and CellQuestPro (Becton Dickinson). […]

[4] = system: normal rat embryo fibroblasts (REFs); assay: cell cycle distribution by flow cytometry, normal REFs; type: cell-based; settings: 5 μM
Experimental: as §2, §3

pharmacokinetics in mice = settings: 6.25 mg/kg i.p.
Experimental: Blood and brains were collected from three to four mice per group at 0, 1, 2, 4 and 24 hours following injection of 6.25 mg/kg ToM. Plasma samples were extracted using protein precipitation. Brain samples were extracted by homogenization in acetonitrile:DMSO, 95:5 using a gentleMACS Dissociater and gentleMACS™ M Tubes. The protein in the mouse plasma samples was removed by protein precipitation with acetonitrile containing the internal standard. After protein precipitation the study samples were centrifuged, and the resulting supernatant was analyzed. The acetonitrile:DMSO from the brain sample homogenates were spiked with the internal standard and then analyzed. All samples were analyzed by first separating them by reversed phase gradient LC and subsequently detecting them using positive electrospray ionization and multiple reaction monitoring (MRM).
First, we performed a pharmacokinetic study of the behavior of the molecule in mice.

[5] = system: primary patient derived glioblastoma cells; assay: primary glioblastoma cultures, resazurin assay; settings: 42 patients, 2D cultures, 72 hours
Experimental: A) Primary glioblastoma samples from 42 patient biopsies were cultured for 72 hours in presence of MYCMI-7 at indicated doses and cell growth was measured by the resazurin assay.
Viability measurements in glioblastoma initiating cell cultures: The adherent human glioblastoma initiating cell cultures (2) were seeded on laminin-coated 384-well microplates (BD Falcon Optilux #353962). […] Cell cultures (45 for screen 2 and 24/29 for screen 3) were plated one day prior to treatment using a Multidrop plate dispenser (ThermoScientific). Drugs were transferred using an ECHO550 non-contact liquid dispenser (Labcyte, USA) to a 384 standard dispensing plate. The substances were subsequently diluted in medium and lifted with a 384 head and a Janus MTD liquid dispenser (PerkinElmer, USA) to the cell plates. The screening experiment was assayed for viability using resazurin (R7017, Sigma Aldrich) after 72 hours of treatment as previously described (3), and detected by a fluorescent plate reader (EnVision multilabel reader, PerkinElmer) at excitation and emission wavelengths of 535/595 nm. As a negative control, DMSO vehicle was added at 4 different concentrations (16 wells/plate) and doxorubicin was used as a positive control (one 11-dose response curve on each plate). Each treatment dose was mapped to their individual exact DMSO concentration for normalization. […]

[6] = system: HO15.19 (MYC-/-) Rat1 fibroblasts; assay: WST-1 growth/viability assay, MYC null Rat1 fibroblasts
Experimental: A) Immortalized Rat1 fibroblasts with different MYC status; TGR1 (wt MYC), HO15.19 (MYC−/−) and HOMyc3 (HO15.19 with reconstituted MYC) were treated with indicated concentrations of MYCMI-7 for 48 hours. Cell proliferation/viability/metabolic activity was measured using the WST-1 assay. […] “Responsive” and “less responsive”; cell lines with positive and negative log 10 GI50 values, respectively. […] For the WST-1 assays the average of three different experiments performed in triplicates is shown.
Cell growth and viability assays: Cell growth and viability was estimated in triplicates with WST-1 (Roche) or Resazurin sodium salt (Sigma-Aldrich) assays in medium at 37° C. and 5% CO2 for 2 hours after which absorbance or fluorescence, respectively, was measured with an Omega Fluostar (BMG Labtech) in a 96 well plate format.

Sequence of MYC:MAX interaction (P01106 16-454): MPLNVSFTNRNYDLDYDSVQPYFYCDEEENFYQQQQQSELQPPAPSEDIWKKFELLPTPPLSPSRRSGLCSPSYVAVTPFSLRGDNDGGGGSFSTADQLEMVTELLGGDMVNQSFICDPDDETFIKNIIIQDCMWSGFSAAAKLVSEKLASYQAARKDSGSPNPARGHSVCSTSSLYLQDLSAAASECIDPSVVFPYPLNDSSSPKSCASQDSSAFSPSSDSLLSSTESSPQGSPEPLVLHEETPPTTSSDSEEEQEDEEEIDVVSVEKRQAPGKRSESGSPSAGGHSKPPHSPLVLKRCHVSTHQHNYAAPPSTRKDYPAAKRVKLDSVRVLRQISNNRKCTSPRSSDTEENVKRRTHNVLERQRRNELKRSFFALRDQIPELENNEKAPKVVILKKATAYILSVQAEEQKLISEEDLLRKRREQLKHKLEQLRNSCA
T1 sequence (P03069 253-274 limits assumed): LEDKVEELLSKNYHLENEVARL
T2 sequence (P04198 whole entry): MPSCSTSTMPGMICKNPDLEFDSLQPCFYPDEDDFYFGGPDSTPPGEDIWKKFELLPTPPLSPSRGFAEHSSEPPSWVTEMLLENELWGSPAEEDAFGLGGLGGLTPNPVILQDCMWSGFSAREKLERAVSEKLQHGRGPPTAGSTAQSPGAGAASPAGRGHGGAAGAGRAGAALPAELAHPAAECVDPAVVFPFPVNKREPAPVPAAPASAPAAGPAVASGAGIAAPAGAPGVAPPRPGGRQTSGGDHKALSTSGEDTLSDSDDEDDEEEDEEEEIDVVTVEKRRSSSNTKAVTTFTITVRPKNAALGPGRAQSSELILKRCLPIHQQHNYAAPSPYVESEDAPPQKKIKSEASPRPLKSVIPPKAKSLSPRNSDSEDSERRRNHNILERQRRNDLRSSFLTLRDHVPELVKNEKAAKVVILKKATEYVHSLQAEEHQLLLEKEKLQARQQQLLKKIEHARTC

CCN(CC)CC[n+]1ccc2c(C)c3[nH]c4ccccc4c3c(C)c2c1 [MYCMI-7, 2-(5,11-Dimethyl-6H-25-pyrido[4,3-b]carbazol-2-yl)-N,N-diethylethanamine bromide]
effect on homodimerization of GCN4 (GCN4:GCN4 GLuc) [1]: did not have any significant effect
MYC:MAX interaction by co-IP (MYC:MAX interaction; 1 hour after treatment): decreased
MYC:MAX interaction by co-IP (MYC:MAX interaction; 4 hours): reduced drastically
Expression of MYCN (MYCN): reduced
formation of transformed foci and colonies in semi-solid medium [2]: strongly inhibited
4-OHT-induced expression of CR2, RGS16, CAMKV and nucleolin [3]: significantly reduced
G1/S ratio compared to DMSO (P493-6 cells): higher G1/S ratio
cell death (sub-G1 cells) (P493-6 cells): strongly induced cell death
cell cycle effect [4]: induced G1 arrest
cell death [4]: no increase in cell death
detection in the brain (pharmacokinetics in mice): could not be detected
GI50 [5]: submicromolar range
concentration above which viability of HO15.19 cells started to go down (off target effects) [6]: higher than 10 μM
proliferation/viability of MYC null cells ([6]; concentrations of 10 μM, WST-1): unaffected
